From US10221144B2, “Antibacterial compounds having broad spectrum of activity” (priority 2014, dated 2019) come the findings set out here.

Read-outs that look alike come from different tables or passages of the source.

Holding throughout (assay type): biochemical
The target in one assay is T1, E. coli DNA gyrase (Escherichia coli, UniProt P0AES4+P0AES6).
T1 construct: purchased Inspiralis, UK
In words: DNA gyrase supercoiling assay (E. coli). As to conditions: for % inhibition DNA gyrase / inhibition at 50 µM: n/a = not active. The method, then:
(§1) The above compounds were tested for the inhibition of the enzyme DNA gyrase in a gyrase supercoiling assay and for the inhibition of the enzyme topoisomerase IV in a decatenation assay, in both Gram positive and Gram negative bacteria, according to the following methods.
(§2) Both the assays were carried out according to a set-up method modified from the article to Blanche F, et al. “Differential Behaviors of Staphylococcus aureus and Escherichia coli Type II DNA Topoisomerases”, Antimicrob. Agents Chemother., 1996, Vol. 40, No. 12 p. 2714-2720.
(§3) The compounds were screened at single concentration (200, 100 or 50 μM), in duplicate.
(§4) Reagents from S. aureus and E. coli Gyrase Supercoiling Assay kits (Inspiralis, UK) were used. A master mix with a total volume sufficient for the number of reactions to perform was prepared with the following reagents: 5× assay buffer, relaxed pBR322 substrate (0.5 μg/reaction), RNase-DNase free water. Aliquotes of this mix were dispensed in each tube, then 10× compound stock solutions or vehicle control (DMSO), were added to each reaction tube.
(§5) Reaction was started with E. Coli (2 U/reaction) or S. aureus (1 U/reaction) gyrase enzyme addition.
(§6) A sample added with an equal volume of dilution buffer was used as negative control (without enzyme).
(§7) The reaction tubes were gentle vortexed and incubated 30 minutes at 37° C. Each reaction was stopped by adding 30 μl of Stop Buffer and 30 μl chloroform/isoamyl alcohol (24/1), briefly vortexed for 5-10 seconds and centrifuged at 20000×g for 2 minutes. Samples were loaded onto 1% agarose gel and subjected to electrophoresis for 1 hour at 80V constant voltage in TAE (40 mM Tris-acetate, 2 mM EDTA).
(§8) Data acquisition and analysis. Treatment of relaxed pBR322 with DNA gyrase converted the relaxed topoisomers (DNAs of different linking number) to the supercoiled form of the plasmid, which migrates faster on an agarose gel. An upper band might also be visible, which consists of open-circular (nicked) DNA which is present in the relaxed substrate but co-migrates with some of the relaxed topoisomers.
(§9) Bands were visualized by ethidium bromide staining (dilution 1:20000) for 30 minutes followed by destaining in distilled water for 10 minutes.
(§10) In order to evaluate the compounds activity on the enzyme, the bands of supercoiled DNAs in the gel were photographed by a digital imaging system ImageQuant LAS 4000 (GE Healthcare) according to manufacturer's instructions.
(§11) The fluorescent intensity of each band was analyzed by ImageQuant TL software and it was expressed as volume (volume of the uncalibrated quantity of material in the image feature after subtraction of the background intensity by using rolling ball method).
(§12) Each band intensity was compared, as percentage, to vehicle sample band intensity, which served as positive control, on the same gel.
(§13) Inhibitory activity was expressed as percent of inhibition versus the positive control.
(§14) The supercoiled or decatenated DNA bands obtained as described in Example 1 were analysed as follows.
(§15) Bands were analyzed by gel documentation equipment (Syngene, Cambridge, UK) and quantitated using Syngene Gene Tools software. Raw gel data (fluorescent band volumes) collected from Syngene, GeneTools gel analysis software were converted to a percentage of the 100% control (the fully supercoiled or decatenated DNA band). […] The IC50 data were calculated by using the global curve fit non-linear regression tool by selecting the Single, 2 Parameter fit function from the Exponential Decay equation category.

Another assay concerns the target T2, E. coli Topoisomerase IV (Escherichia coli, UniProt P0AFI2+P20083).
T2 construct: purchased Inspiralis, UK
Put plainly: Topoisomerase IV decatenation assay (E. coli). Conditions: for % inhibition Topo IV / inhibition at 50 µM: n/a = not active; for inhibition at 50 µM: read-out: % inhibition Topo IV. The method, then:
as §1, §2, §3
(§16) S. aureus and E. coli Topoisomerase IV decatenation kits (Inspiralis, UK) were used. A master mix with a total volume sufficient for the number of reactions to perform was prepared with the following reagents: 5× assay buffer (50 mM HEPES-KOH (pH 7.6), 100 mM potassium glutamate, 10 mM magnesium acetate, 10 mM DTT, 1 mM ATP, 50 μg/ml albumin), kDNA substrate (200 ng/reaction), RNase-DNase free water. Aliquots of this mix were dispensed in each tube, then 10× compound stock solutions or vehicle control (DMSO), were added in each reaction tube.
(§17) Reaction was started with Topoisomerase IV enzyme (0.5 U/reaction) addition.
as §6
(§18) The reaction tubes were gentle vortexed and incubated 30 minutes at 37° C. Each reaction was stopped by adding 30 μl of Stop Buffer and 30 μl of chloroform/isoamyl alcohol (24/1), briefly vortexed for 5-10 seconds and centrifuged at 20000×g for 2 minutes. Samples taken from the upper phase were loaded into 1% agarose gel and subjected to electrophoresis for 1 hour at 80V constant voltage in TAE (40 mM Tris-acetate, 2 mM EDTA).
(§19) Data acquisition and analysis. Due to the high molecular mass, kDNA could not enter an agarose gel under normal electrophoresis conditions, but remained in the wells. In the presence of Topo IV topoisomerase mini-circles (2.5 Kb) were released from kDNA by decatenation and were quickly and easily resolved in the gel at relatively high voltages.
(§20) Bands were visualized by ethidium bromide staining (dil 1:20000) for 30 minutes followed by destaining in distilled water for 10 minutes.
(§21) For single concentration screening assay, in order to evaluate the compounds activity on the enzymes, the bands of decatenated DNAs in the gel were photographed by a digital imaging system ImageQuant LAS 4000 (GE Healthcare) according to manufacturer's instructions.
as §11, §12, §13, §14, §15

The next assay has as its target T3, S. aureus DNA gyrase (Staphylococcus aureus, UniProt P0A0K8+P20831).
T3 construct: purchased Inspiralis, UK
In words: DNA gyrase supercoiling assay (S. aureus). As to conditions: for % inhibition DNA gyrase / inhibition at 50 µM: n/a = not active. The method, then:
as §1, §2, §3, §4, §5, §6, §7, §8, §9, §10, §11, §12, §13, §14, §15

Assay [1] concerns the target T4, S. aureus Topoisomerase IV (Staphylococcus aureus, UniProt P0C1S7+P0C1U9).
T4 construct: purchased Inspiralis, UK
Put plainly: Topoisomerase IV decatenation assay (S. aureus). Conditions: S. aureus; for % inhibition Topo IV: n/a = not active; for IC50: concentration-response curve, eight half-log concentrations 0.1 to 300 μM, read-out: IC50 Topo IV. The method, then: as §1, §2, §3, §16, §17, §6, §18, §19, §20, §21, §11, §12, §13, §14, §15

Setting [2] is: E. coli, concentration-response curve, eight half-log concentrations 0.1 to 300 μM, read-out: IC50 DNA gyrase.
Where [3] appears, read: E. coli, concentration-response curve, eight half-log concentrations 0.1 to 300 μM, read-out: IC50 Topo IV.
Setting [4] is: S. aureus, concentration-response curve, eight half-log concentrations 0.1 to 300 μM, read-out: IC50 DNA gyrase.

T1 sequence (P0AES4 whole entry, one chain of several): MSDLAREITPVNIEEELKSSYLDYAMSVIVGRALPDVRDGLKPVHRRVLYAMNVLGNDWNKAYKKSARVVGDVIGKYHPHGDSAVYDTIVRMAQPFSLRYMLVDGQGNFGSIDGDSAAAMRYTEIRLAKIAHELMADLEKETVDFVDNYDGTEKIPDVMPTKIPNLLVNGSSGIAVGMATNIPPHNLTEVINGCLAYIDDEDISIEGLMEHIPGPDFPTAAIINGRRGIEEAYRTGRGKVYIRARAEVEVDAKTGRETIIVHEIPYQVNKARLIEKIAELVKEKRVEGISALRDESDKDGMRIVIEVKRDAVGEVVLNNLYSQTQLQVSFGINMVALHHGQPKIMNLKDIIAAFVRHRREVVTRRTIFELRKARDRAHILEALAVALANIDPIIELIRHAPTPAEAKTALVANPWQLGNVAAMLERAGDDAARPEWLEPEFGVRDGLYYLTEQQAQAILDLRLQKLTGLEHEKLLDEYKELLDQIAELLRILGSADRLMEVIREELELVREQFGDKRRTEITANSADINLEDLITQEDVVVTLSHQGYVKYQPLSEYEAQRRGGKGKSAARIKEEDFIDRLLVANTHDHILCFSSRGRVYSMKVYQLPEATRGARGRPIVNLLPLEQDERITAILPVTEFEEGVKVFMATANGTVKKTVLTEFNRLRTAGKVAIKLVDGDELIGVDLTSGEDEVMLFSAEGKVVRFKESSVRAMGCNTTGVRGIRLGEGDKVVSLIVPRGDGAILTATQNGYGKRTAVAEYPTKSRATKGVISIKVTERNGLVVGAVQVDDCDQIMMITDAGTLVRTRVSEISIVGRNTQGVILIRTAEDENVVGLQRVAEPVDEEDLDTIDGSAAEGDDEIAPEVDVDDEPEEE
T3 sequence (P0A0K8 whole entry): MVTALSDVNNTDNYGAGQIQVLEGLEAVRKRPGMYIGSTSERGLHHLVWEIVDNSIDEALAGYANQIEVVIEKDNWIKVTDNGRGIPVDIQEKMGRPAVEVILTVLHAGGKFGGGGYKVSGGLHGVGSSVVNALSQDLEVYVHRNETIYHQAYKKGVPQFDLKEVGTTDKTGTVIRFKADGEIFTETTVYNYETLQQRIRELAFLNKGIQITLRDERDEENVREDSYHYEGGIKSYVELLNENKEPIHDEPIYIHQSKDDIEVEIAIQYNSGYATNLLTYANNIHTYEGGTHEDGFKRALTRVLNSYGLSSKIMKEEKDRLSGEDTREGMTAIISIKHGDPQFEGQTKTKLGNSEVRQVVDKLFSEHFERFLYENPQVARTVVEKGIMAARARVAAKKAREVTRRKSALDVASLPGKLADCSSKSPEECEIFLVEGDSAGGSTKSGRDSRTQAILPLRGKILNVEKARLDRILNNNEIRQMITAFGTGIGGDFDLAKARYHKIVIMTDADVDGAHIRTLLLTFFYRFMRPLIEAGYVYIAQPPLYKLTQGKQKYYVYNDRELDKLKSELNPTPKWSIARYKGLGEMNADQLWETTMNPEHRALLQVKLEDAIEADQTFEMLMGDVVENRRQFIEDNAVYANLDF
T3 sequence (P20831 whole entry): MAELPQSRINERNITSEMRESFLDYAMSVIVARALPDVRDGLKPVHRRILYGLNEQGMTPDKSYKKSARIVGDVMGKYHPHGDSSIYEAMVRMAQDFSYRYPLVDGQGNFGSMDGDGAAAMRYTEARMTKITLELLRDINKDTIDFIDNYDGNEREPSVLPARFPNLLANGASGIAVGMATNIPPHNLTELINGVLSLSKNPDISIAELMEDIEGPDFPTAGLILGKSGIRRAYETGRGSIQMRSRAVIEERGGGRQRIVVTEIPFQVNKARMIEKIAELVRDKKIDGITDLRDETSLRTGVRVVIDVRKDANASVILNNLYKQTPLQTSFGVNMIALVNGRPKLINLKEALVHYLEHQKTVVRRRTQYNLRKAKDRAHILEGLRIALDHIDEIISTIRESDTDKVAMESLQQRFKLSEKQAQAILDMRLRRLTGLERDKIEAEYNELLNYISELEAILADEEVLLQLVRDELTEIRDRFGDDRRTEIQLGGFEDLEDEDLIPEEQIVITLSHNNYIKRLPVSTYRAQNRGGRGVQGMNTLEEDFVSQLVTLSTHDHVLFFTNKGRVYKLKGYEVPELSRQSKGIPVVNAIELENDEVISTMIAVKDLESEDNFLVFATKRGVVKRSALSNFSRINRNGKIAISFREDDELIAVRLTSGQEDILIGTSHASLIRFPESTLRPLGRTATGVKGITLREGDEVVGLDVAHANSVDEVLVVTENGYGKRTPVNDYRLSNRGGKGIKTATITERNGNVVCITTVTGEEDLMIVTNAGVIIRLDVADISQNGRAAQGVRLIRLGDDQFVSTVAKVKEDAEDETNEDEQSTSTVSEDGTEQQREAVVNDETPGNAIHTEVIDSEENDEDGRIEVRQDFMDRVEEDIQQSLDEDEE
T2 sequence (P20083 whole entry): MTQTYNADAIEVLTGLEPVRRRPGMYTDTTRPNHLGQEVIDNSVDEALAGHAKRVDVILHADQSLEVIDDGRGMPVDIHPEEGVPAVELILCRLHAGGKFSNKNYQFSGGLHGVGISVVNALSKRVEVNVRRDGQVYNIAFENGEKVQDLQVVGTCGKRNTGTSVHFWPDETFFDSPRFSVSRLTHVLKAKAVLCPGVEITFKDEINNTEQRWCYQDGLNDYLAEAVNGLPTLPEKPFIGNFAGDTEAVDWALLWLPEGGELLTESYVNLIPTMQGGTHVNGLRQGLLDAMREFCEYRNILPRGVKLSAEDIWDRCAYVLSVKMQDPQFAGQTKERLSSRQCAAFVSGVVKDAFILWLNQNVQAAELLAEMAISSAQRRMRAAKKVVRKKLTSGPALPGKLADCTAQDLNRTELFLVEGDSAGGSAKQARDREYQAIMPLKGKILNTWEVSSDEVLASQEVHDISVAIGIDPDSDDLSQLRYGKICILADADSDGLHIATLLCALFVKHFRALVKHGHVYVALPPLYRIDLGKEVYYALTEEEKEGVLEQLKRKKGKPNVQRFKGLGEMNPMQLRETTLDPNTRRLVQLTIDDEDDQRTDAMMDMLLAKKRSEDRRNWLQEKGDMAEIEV
T2 sequence (P0AFI2 whole entry): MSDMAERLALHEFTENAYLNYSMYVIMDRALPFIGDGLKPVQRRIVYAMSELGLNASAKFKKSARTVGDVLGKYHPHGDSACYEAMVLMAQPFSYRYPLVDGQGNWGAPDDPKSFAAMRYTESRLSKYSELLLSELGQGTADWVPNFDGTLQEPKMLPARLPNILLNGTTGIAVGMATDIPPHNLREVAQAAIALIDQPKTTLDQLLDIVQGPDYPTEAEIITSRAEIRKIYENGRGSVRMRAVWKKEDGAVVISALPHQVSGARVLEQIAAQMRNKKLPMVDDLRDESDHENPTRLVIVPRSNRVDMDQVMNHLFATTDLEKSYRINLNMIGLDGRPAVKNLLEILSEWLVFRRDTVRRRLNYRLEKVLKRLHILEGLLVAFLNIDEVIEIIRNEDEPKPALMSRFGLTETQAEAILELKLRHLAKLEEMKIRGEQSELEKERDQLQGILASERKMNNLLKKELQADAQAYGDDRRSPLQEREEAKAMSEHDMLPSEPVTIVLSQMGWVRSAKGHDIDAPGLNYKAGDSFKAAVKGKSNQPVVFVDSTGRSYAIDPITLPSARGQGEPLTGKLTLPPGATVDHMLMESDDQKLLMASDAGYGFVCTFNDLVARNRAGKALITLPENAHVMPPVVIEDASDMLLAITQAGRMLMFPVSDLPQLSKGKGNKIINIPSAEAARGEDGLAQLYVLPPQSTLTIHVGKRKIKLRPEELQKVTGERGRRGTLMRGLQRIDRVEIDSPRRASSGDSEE

Regarding “7-methoxy-1-chloroisoquinoline [Compound 88]”, the “% inhibition DNA gyrase” value was found to be 100% on E. coli DNA gyrase (E. coli, conc. 50 μM) and 100% on S. aureus DNA gyrase (S. aureus, conc. 50 μM). Further, the concentration for half-maximal inhibition (IC50) at E. coli DNA gyrase (setting [2]) was found to be 3.2 µM; at E. coli Topoisomerase IV (setting [3]), 0.9 µM; at S. aureus DNA gyrase (setting [4]), 1.1 µM; in assay [1], 6.7 µM. In addition, the “% inhibition Topo IV” value on E. coli Topoisomerase IV (E. coli, conc. 50 μM) is on record as 100%; in assay [1] (conc. 50 μM), 88%.
In the case of “7-methyl-1-chloroisoquinoline [Compound 72]”, the “% inhibition DNA gyrase” value on E. coli DNA gyrase (E. coli, conc. 100 μM) was found to be 98%; on S. aureus DNA gyrase (S. aureus, conc. 100 μM), 97%. Moreover, the IC50 is 2.6 µM on E. coli DNA gyrase (setting [2]), 3.8 µM at E. coli Topoisomerase IV (setting [3]), 9.6 µM on S. aureus DNA gyrase (setting [4]) and 52 µM in assay [1]. Moreover, the “% inhibition Topo IV” value on E. coli Topoisomerase IV (E. coli, conc. 100 μM) was found to be 91%; in assay [1] (conc. 100 μM), 76%.
With `O=c1cc(NCCCN2CCN(c3nccc4ccccc34)CC2CO)c2ccccc2o1` (stereo not shown) [Compound 90, 4-({3-[2-(hydroxymethyl)-4-(isoquinolin-1-yl)piperazin-1-yl]-propyl}amino)-2H-chromen-2-one], the IC50 at E. coli DNA gyrase was found to be 8.3 µM; on E. coli Topoisomerase IV it was 15.5 µM; against S. aureus DNA gyrase it was 9.3 µM. Moreover, the inhibition at 50 µM against E. coli DNA gyrase (E. coli, conc. 50 μM) was 93%; on E. coli Topoisomerase IV (E. coli, conc. 50 μM), 81%; against S. aureus DNA gyrase (S. aureus, conc. 50 μM), 89%.
Consider `[O-][n+]1ccc2ccc(F)cc2c1Cl` [Compound 100, 1-chloro-7-fluoroisoquinolin-2-ium-2-olate], for which the “% inhibition DNA gyrase” value on E. coli DNA gyrase (E. coli, conc. 50 μM) was 95%; on S. aureus DNA gyrase (S. aureus, conc. 50 μM), 91%. The IC50 on E. coli DNA gyrase (setting [2]) amounted to 4.5 µM; at E. coli Topoisomerase IV (setting [3]), 10.2 µM; at S. aureus DNA gyrase (setting [4]) it was 4.7 µM. Moreover, the “% inhibition Topo IV” value on E. coli Topoisomerase IV (E. coli, conc. 50 μM) turned out to be 76%.
For `O=c1cc(NCCC[N+]2([O-])CCN(c3nccc4ccc(F)cc34)CC2)c2ccccc2o1` [Compound 105, 4-({3-[4-(7-fluoroisoquinolin-1-yl)-1-oxidopiperazin-1-yl]propyl}amino)-2H-chromen-2-one], the IC50 at E. coli DNA gyrase came to 11.4 µM; against E. coli Topoisomerase IV, 5.6 µM; at S. aureus DNA gyrase it was 6.6 µM. The inhibition at 50 µM at E. coli DNA gyrase (E. coli, conc. 50 μM) was determined as 91%; at E. coli Topoisomerase IV (E. coli, conc. 50 μM) it was 66%; on S. aureus DNA gyrase (S. aureus, conc. 50 μM), 100%.
For `O=c1cc(NCCCN2CCC(c3nccc4ccccc34)CC2)c2ccccc2o1` [Compound 109, 4-({3-[4-(isoquinolin-1-yl)piperidin-1-yl]propyl}amino)-2H-chromen-2-one], the half-inhibitory concentration (IC50) came to 5.1 µM on E. coli DNA gyrase, 5.6 µM at E. coli Topoisomerase IV and 20.7 µM against S. aureus DNA gyrase. The inhibition at 50 µM is 100% on E. coli DNA gyrase (E. coli, conc. 50 μM); 72% at E. coli Topoisomerase IV (E. coli, conc. 50 μM); 100% against S. aureus DNA gyrase (S. aureus, conc. 50 μM).
In the case of `C[N+]1(CCCNc2cc(=O)oc3ccccc23)CCN(c2nccc3ccccc23)CC1` [Compound 124, 4-(isoquinolin-1-yl)-1-methyl-1-{3-[(2-oxo-2H-chromen-4-yl)amino]propyl}piperazin-1-ium iodide], the IC50 was found to be 7 µM at E. coli DNA gyrase, 6 µM on E. coli Topoisomerase IV and 9 µM on S. aureus DNA gyrase. Moreover, the inhibition at 50 µM is 79% against E. coli DNA gyrase (E. coli, conc. 50 μM); 62% on E. coli Topoisomerase IV (E. coli, conc. 50 μM); 75% against S. aureus DNA gyrase (S. aureus, conc. 50 μM).
Consider `O=c1cc(NCCCN2CCN(c3nccc4ccc(F)cc34)CC2)c2c(o1)CCOC2` [Compound 125, 4-({3-[4-(7-fluoroisoquinolin-1-yl)piperazin-1-yl]propyl}amino)-7,8-dihydro-2H,5H-pyrano[4,3-b]pyran-2-one], for which the results for the IC50 on E. coli DNA gyrase, on E. coli Topoisomerase IV and at S. aureus DNA gyrase were 6.3 µM, 59 µM and 19 µM, respectively. Moreover, the inhibition at 50 µM against E. coli DNA gyrase (E. coli, conc. 50 μM) was found to be 86%; on E. coli Topoisomerase IV (E. coli, conc. 50 μM) it was 68%; on S. aureus DNA gyrase (S. aureus, conc. 50 μM), 89%.
For `O=c1cc(CC(O)CCN2CCN(c3nccc4ccc(F)cc34)CC2)c2ccccc2o1` (stereo not shown) [Compound 134, 4-{4-[4-(7-fluoroisoquinolin-1-yl)piperazin-1-yl]-2-hydroxybutyl}-2H-chromen-2-one], the IC50 stood at 2.8 µM at E. coli DNA gyrase, 2.5 µM against E. coli Topoisomerase IV and 0.81 µM against S. aureus DNA gyrase. Also, the inhibition at 50 µM against E. coli DNA gyrase (E. coli, conc. 50 μM) came out at 87%; at E. coli Topoisomerase IV (E. coli, conc. 50 μM), 78%; against S. aureus DNA gyrase (S. aureus, conc. 50 μM), 71%.
Turning to `O=c1oc2ccccc2c2[nH]c(CCN3CCN(c4nccc5ccc(F)cc45)CC3)nc12` [Compound 143, 2-{2-[4-(7-fluoroisoquinolin-1-yl)piperazin-1-yl]ethyl}chromeno[3,4-d]imidazol-4(1H)-one], the inhibition at 50 µM came to 96% against E. coli DNA gyrase (E. coli, conc. 50 μM); 91% on E. coli Topoisomerase IV (E. coli, conc. 50 μM); 89% on S. aureus DNA gyrase (S. aureus, conc. 50 μM).
`O=c1oc2ccccc2c2[nH]c(CNC3CCN(c4nccc5ccc(F)cc45)CC3)cc12` [Compound 145, 2-({[1-(7-fluoroisoquinolin-1-yl)piperidin-4-yl]amino}methyl)[1]benzopyrano[4,3-b]pyrrol-4(1H)-one]: the inhibition at 50 µM against E. coli DNA gyrase (E. coli, conc. 50 μM) is 99%; on E. coli Topoisomerase IV (E. coli, conc. 50 μM), 100%; at S. aureus DNA gyrase (S. aureus, conc. 50 μM), 97%.
The like results for `O=c1oc2ccccc2c2[nH]c(CNC3CCN(c4nccc5ccc(F)cc45)CC3)nc12` [Compound 146, 2-({[1-(7-fluoroisoquinolin-1-yl)piperidin-4-yl]amino}methyl)[1]benzopyrano[3,4-d]imidazol-4(1H)-one] were, in that order, 91%, 100% and 93%.
Regarding `O=c1oc2ccccc2c2[nH]c(CCCN3CCN(c4nccc5ccc(F)cc45)CC3)nc12` [Compound 147, 2-{3-[4-(7-fluoroisoquinolin-1-yl)piperazin-1-yl]propyl}[1]benzopyrano[3,4-d]imidazol-4(1H)-one], the inhibition at 50 µM at E. coli DNA gyrase (E. coli, conc. 50 μM) came out at 84%; on E. coli Topoisomerase IV (E. coli, conc. 50 μM), 74%; against S. aureus DNA gyrase (S. aureus, conc. 50 μM), 85%.

One may read the IC50 as the concentration that gives 50% inhibition. The inhibition is the percentage by which the read-out fell short of the control.
